Data taken from paper PMC3155955 (Bioorganic & medicinal chemistry letters, 2011).
pIC50: −log10 of the molar value.

How the values were obtained:
[1] = test system: HCT-116 human colon cancer cells; test: MTS cytotoxicity assay, HCT-116; format: cell-based
[2] = test system: CCD-18Co normal colon fibroblasts; test: MTS cytotoxicity assay, CCD-18Co; format: cell-based, human; details: colon cancer cells (HCT-116, Caco-2) vs CCD-18Co
[3] = test system: Caco-2 human colon cancer cells; test: MTS cytotoxicity assay, Caco-2; format: cell-based; details: Caco-2, read-out: IC50 (consistent values of the control)

In the case of `COc1cc2c3c(c1O)-c1cc4c(cc1C[C@@H]3N(C)CC2)OCO4` [Compound 1, domesticine], the “fold less potent than the benchmark etoposide” value ([1]; HCT-116 cell line) was “approximately 3 fold”.
For `CCC(CC)COc1c(OC)cc2c3c1-c1cc4c(cc1C[C@@H]3N(C)CC2)OCO4` [Compound 3], the “selectivity for colon cancer cells vs normal colon fibroblasts (CCD-18Co)” value [2] was “approximately 2 fold”.
`COc1cc([C@@H]2c3cc4c(cc3[C@@H](O[C@@H]3O[C@@H]5CO[C@@H](C)O[C@H]5[C@H](O)[C@H]3O)[C@H]3COC(=O)[C@H]23)OCO4)cc(OC)c1O` [etoposide] was tested, and the pIC50 ([1]; Homo sapiens, HCT-116, read-out: IC50 (consistent values of the control)) was 4.60 to 4.82 and the pIC50 [3] was 4.60 to 4.82.
